From patent publication US20170275298A1, “INHIBITORS OF THE RENAL OUTER MEDULLARY POTASSIUM CHANNEL” (Merck Sharp & Dohme Corp., priority 2014, published 2017)

Biological target: T1, hROMK (hKir1.1) (Homo sapiens, UniProt P48048)
T1 construct: expressed in transfected cells
T1 sequence (P48048 1-391): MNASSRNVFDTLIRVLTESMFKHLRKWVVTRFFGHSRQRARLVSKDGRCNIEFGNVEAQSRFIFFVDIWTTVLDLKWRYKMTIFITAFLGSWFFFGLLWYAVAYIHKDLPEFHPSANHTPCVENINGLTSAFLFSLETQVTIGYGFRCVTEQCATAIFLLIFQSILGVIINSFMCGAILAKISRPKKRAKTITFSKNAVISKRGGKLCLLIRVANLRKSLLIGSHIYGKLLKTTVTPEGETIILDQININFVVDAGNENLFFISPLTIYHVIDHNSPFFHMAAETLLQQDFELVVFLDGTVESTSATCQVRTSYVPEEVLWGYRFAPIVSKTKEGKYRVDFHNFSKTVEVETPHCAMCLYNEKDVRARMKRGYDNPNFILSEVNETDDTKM
Assay: Thallium Flux Assay (ROMK channel functional thallium flux assay)
Format: cell-based
Conditions: HEK293 cells stably expressing hROMK (hKir1.1); FluxOR thallium flux, FLIPR-Tetra, 30 min compound incubation; read-out: ROMK TI IC50
Experimental: The following Thallium Flux Assay was performed on each of the final product compounds in the Examples.
HEK293 cells stably expressing hROMK (hKir1.1) were grown at 37° C. in a 10% CO2 humidified incubator in complete growth media: Dulbecco's Modified Eagle Medium supplemented with non-essential amino acids, Penicillin/Streptomycin/Glutamine, G418 and FBS. At >80% confluency, the media was aspirated from the flask and rinsed with 10 mL calcium/magnesium-free PBS. […] To dislodge the cell, the side of the flask was gently banged with one's hand. The cells completely titrated and then the cells were transferred to 25 mL complete media, centrifuged at 1,500 rpm for 6 min followed by resuspension in complete growth media and determine cell concentration. […] Under ideal growth conditions and appropriate tissue culture practices, this cell line is stable for 40-45 passages.
• FluxOR™ Reagent (Component A) • FluxOR™ Assay Buffer (Component B)—10× Concentrate • PowerLoad™ Concentrate (Component C)—100× Concentrate • Probenecid (Component D)—Lyophilized sample is kept at −20° C. Water soluble, 100× after solubilization in 1 mL water. […] Store at 4° C. • Thallium sulfate (Tl2SO4) Concentrate (Component G)—50 mM in water. Store at 4° C. • DMSO (dimethyl sulfoxide, Component H)—1 mL (100%)
Can be stored at room temperature • Stimulant Buffer (prepared at 5× final concentration in 1×FluxOR™ Chloride-Free Buffer): 7.5 mM thallium sulfate and 0.75 mM potassium sulfate (to give a final assay concentration of 3 mM Thallium/0.3 mM potassium). Store at 4° C. when not in use. If kept sterile, this solution is good for months.
The ROMK channel functional thallium flux assay was performed in 384 wells, using the FLIPR-Tetra instrument. HEK-hKir1.1 cells were seeded in Poly-D-Lysine microplates and kept in a 37° C.-10% CO2 incubator overnight. On the day of the experiment, the growth media was replaced with the FluxOR™ reagent loading buffer and incubated, protected from light, at ambient temperature (23-25° C.) for 90 min. The loading buffer was replaced with assay buffer±test compound followed by 30 min incubation at ambient temperature, where the thallium/potassium stimulant was added to the microplate.
1. Seed HEK-hKir1.1 cells (50 μl at 20,000 cells/well) in 384-well PDL coated Microplates 2. Allow cells to adhere overnight in humidified 37° C./10% CO2 incubator 3. Completely remove cell growth media from microplate and replace with 25 μl loading buffer 4. Incubate Microplate at room temperature, protected form light, for 90 min 5. Remove loading buffer and replace with 25 μl 1× Assay Buffer±test compound. 6. Incubate microplate at room temperature, protected from light, for 30 min 7. […] Excitation=400 nm, Emission=460 & 580 nm. Collect data for ˜10 min.
The fluorescence intensity of wells containing 3 μM of a standard control ROMK inhibitor of the present invention was used to define the ROMK-sensitive component of thallium flux. Fluorescence in the presence of test compounds was normalized to control values to provide % fluorescence change.

Row | Compound | IC50
1 | CCc1nccc(N2CCC3(CCN(C[C@H](O)c4ccc5c(c4C)COC5=O)CC3)C2=O)n1 [Example 45, (R)-2-(2-ethylpyrimidin-4-yl)-8-(2-hydroxy-2-(4-methyl-1-oxo-1,3-dihydroisobenzofuran-5-yl)ethyl)-2,8-diazaspiro[4.5]decan-1-one] | 354 nM
2 | CNc1nccc(N2CCC3(CCN(C[C@H](O)c4ccc5c(c4C)COC5=O)CC3)C2=O)n1 [Example 47, (R)-8-(2-hydroxy-2-(4-methyl-1-oxo-1,3-dihydroisobenzofuran-5-yl)ethyl)-2-(2-(methylamino)pyrimidin-4-yl)-2,8-diazaspiro[4.5]decan-1-one] | 58.5 nM
3 | CCn1nc(N2CCC3(CCN(C[C@H](O)c4ccc5c(c4C)COC5=O)CC3)C2=O)ccc1=O [Example 51, (R)-2-(1-ethyl-6-oxo-1,6-dihydropyridazin-3-yl)-8-(2-hydroxy-2-(4-methyl-1-oxo-1,3-dihydroisobenzofuran-5-yl)ethyl)-2,8-diazaspiro[4.5]decan-1-one] | 77 nM
4 | Cc1c([C@@H](O)CN2CCC3(CC2)CCN(c2ccc(=O)n(C4CC4)n2)C3=O)ccc2c1COC2=O [Example 53, (R)-2-(1-cyclopropyl-6-oxo-1,6-dihydropyridazin-3-yl)-8-(2-hydroxy-2-(4-methyl-1-oxo-1,3-dihydroisobenzofuran-5-yl)ethyl)-2,8-diazaspiro[4.5]decan-1-one] | 40.6 nM
5 | Cc1c([C@@H](O)CN2CCC3(CC2)CCN(c2ccc(=O)n(C(F)F)c2)C3=O)ccc2c1COC2=O [Example 54, (R)-2-(1-(difluoromethyl)-6-oxo-1,6-dihydropyridin-3-yl)-8-(2-hydroxy-2-(4-methyl-1-oxo-1,3-dihydroisobenzofuran-5-yl)ethyl)-2,8-diazaspiro[4.5]decan-1-one] | 293 nM
6 | Cc1c([C@@H](O)CN2CCC3(CC2)CCN(c2ccc(=O)n(C(F)F)n2)C3=O)ccc2c1COC2=O [Example 55, (R)-2-(1-(difluoromethyl)-6-oxo-1,6-dihydropyridazin-3-yl)-8-(2-hydroxy-2-(4-methyl-1-oxo-1,3-dihydroisobenzofuran-5-yl)ethyl)-2,8-diazaspiro[4.5]decan-1-one] | 133 nM
7 | Cc1c([C@@H](O)CN2CCC3(CC2)CC(=O)N(c2ccns2)C3)ccc2c1COC2=O [Example 61, (R)-8-(2-hydroxy-2-(4-methyl-1-oxo-1,3-dihydroisobenzofuran-5-yl)ethyl)-2-(isothiazol-5-yl)-2,8-diazaspiro[4.5]decan-3-one] | 547 nM
8 | CCOC(=O)c1cc(N2CCC3(CCN(C[C@H](O)c4ccc5c(c4C)COC5=O)CC3)C2=O)on1 [Example 64, (R)-ethyl 5-(8-(2-hydroxy-2-(4-methyl-1-oxo-1,3-dihydroisobenzofuran-5-yl)ethyl)-1-oxo-2,8-diazaspiro[4.5]decan-2-yl)isoxazole-3-carboxylate] | 241 nM
9 | Cc1c([C@@H](O)CN2CCC3(CC2)CCN(c2ccncn2)C3=O)ccc2c1COC2=O [Example 67, (R)-8-(2-hydroxy-2-(4-methyl-1-oxo-1,3-dihydroisobenzofuran-5-yl)ethyl)-2-(pyrimidin-4-yl)-2,8-diazaspiro[4.5]decan-1-one] | 434 nM
10 | Cc1cc2c(cc1[C@@H](O)CN1CCC3(CC1)CCN(c1ccns1)C3=O)COC2=O [Example 68, (R)-8-(2-hydroxy-2-(6-methyl-1-oxo-1,3-dihydroisobenzofuran-5-yl)ethyl)-2-(isothiazol-5-yl)-2,8-diazaspiro[4.5]decan-1-one] | 221 nM
11 | Cc1cc2c(cc1[C@H](O)CN1CCC3(CC1)CCN(c1ccns1)C3=O)COC2=O [Example 69, (S)-8-(2-hydroxy-2-(6-methyl-1-oxo-1,3-dihydroisobenzofuran-5-yl)ethyl)-2-(isothiazol-5-yl)-2,8-diazaspiro[4.5]decan-1-one] | 673 nM
12 | COc1cc([C@@H](O)CN2CCC3(CC2)CCN(c2ccns2)C3=O)ncc1C#N [Example 70, (S)-6-(1-hydroxy-2-(2-(isothiazol-5-yl)-1-oxo-2,8-diazaspiro[4.5]decan-8-yl)ethyl)-4-methoxynicotinonitrile] | 695 nM

Second part, the molecule after the results:

Row | IC50 | Compound
13 | 485 nM | Cc1c([C@@H](O)CN2CCC3(CC2)CCN(c2ccnc(N)n2)C3=O)ccc2c1COC2=O [Example 46, (R)-2-(2-aminopyrimidin-4-yl)-8-(2-hydroxy-2-(4-methyl-1-oxo-1,3-dihydroisobenzofuran-5-yl)ethyl)-2,8-diazaspiro[4.5]decan-1-one]
14 | 176 nM | Cc1c([C@@H](O)CN2CCC3(CC2)CCN(c2cnn(C)c(=O)c2)C3=O)ccc2c1COC2=O [Example 49, (R)-8-(2-hydroxy-2-(4-methyl-1-oxo-1,3-dihydroisobenzofuran-5-yl)ethyl)-2-(1-methyl-6-oxo-1,6-dihydropyridazin-4-yl)-2,8-diazaspiro[4.5]decan-1-one]
15 | 480 nM | COc1cc(N2CCC3(CCN(C[C@H](O)c4ccc5c(c4C)COC5=O)CC3)C2=O)cnn1 [Example 50, (R)-8-(2-hydroxy-2-(4-methyl-1-oxo-1,3-dihydroisobenzofuran-5-yl)ethyl)-2-(6-methoxypyridazin-4-yl)-2,8-diazaspiro[4.5]decan-1-one]
16 | 427 nM | Cc1c([C@@H](O)CN2CCC3(CC2)CCN(c2cc(C)c(=O)n(C)n2)C3=O)ccc2c1COC2=O [Example 52, (R)-2-(1,5-dimethyl-6-oxo-1,6-dihydropyridazin-3-yl)-8-(2-hydroxy-2-(4-methyl-1-oxo-1,3-dihydroisobenzofuran-5-yl)ethyl)-2,8-diazaspiro[4.5]decan-1-one]
17 | 35.1 nM | Cc1c([C@@H](O)CN2CCC3(CC2)CCN(c2ccc(=O)n(C)n2)C3=O)ccc2c1COC2=O [Example 56, (R)-8-(2-hydroxy-2-(4-methyl-1-oxo-1,3-dihydroisobenzofuran-5-yl)ethyl)-2-(1-methyl-6-oxo-1,6-dihydropyridazin-3-yl)-2,8-diazaspiro[4.5]decan-1-one]
18 | 17.5 nM | Cc1cc(N2CCC3(CCN(C[C@H](O)c4ccc5c(c4C)COC5=O)CC3)C2=O)sn1 [Example 66, (R)-8-(2-hydroxy-2-(4-methyl-1-oxo-1,3-dihydroisobenzofuran-5-yl)ethyl)-2-(3-methylisothiazol-5-yl)-2,8-diazaspiro[4.5]decan-1-one]
19 | 37.1 nM | Cc1nsc(N2CCC3(CCN(C[C@H](O)c4ccc5c(c4C)COC5=O)CC3)C2=O)n1 [Example 71, (R)-8-(2-hydroxy-2-(4-methyl-1-oxo-1,3-dihydroisobenzofuran-5-yl)ethyl)-2-(3-methyl-1,2,4-thiadiazol-5-yl)-2,8-diazaspiro[4.5]decan-1-one]
20 | 20 nM | Cc1c([C@@H](O)CN2CCC3(CC2)CCN(c2cnsc2)C3=O)ccc2c1COC2=O [Example 72, (R)-8-(2-hydroxy-2-(4-methyl-1-oxo-1,3-dihydroisobenzofuran-5-yl)ethyl)-2-(isothiazol-4-yl)-2,8-diazaspiro[4.5]decan-1-one]
21 | 417 nM | Cc1c([C@@H](O)CN2CCC3(CC2)CCN(c2ccncc2F)C3=O)ccc2c1COC2=O [Example 73, (R)-2-(3-fluoropyridin-4-yl)-8-(2-hydroxy-2-(4-methyl-1-oxo-1,3-dihydroisobenzofuran-5-yl)ethyl)-2,8-diazaspiro[4.5]decan-1-one]
